Measurements: patent publication US12582719B2, “Chimeric compounds and methods of managing neurological disorders or conditions” (Emory University, priority 2019, dated 2026)
Entries after “also recorded” stand apart in the source; their conditions may differ.

How the values were obtained:
[1] = system: antidepressant-like behavioral effects; details: behaviorally inactive dose of ACY-738 co-administered with sub-effective dose of citalopram; cited from earlier work
histone H4 deacetylation = test: In vitro HDACI activity test (western blot, acetylated histone H4); format: cell-based; details: 9 L rat glioma cell line; for histone H4 acetylation: 5 μM, western blot
Method: The HDACI activity chimeric compounds were tested by western blot using a specific antibody against acetylated histone H4, and 9 L rat glioma cell line. the inhibitory activity of HM3a-R was analyzed at different concentrations (1 μM or 5 μM) on histone H4 deacetylation, compared with established HDACi, entinostat, (pyridin-3-yl)methyl-4-(2-aminophenylcarbamoyl)benzylcarbamate, MS-275 (1 μM or 5 μM) as positive controls.

Cellular toxicity = format: cell-based
[2] = system: LPS-induced depressive behavior (immobility); test: Tail suspension test (TST) with lipopolysaccharide-induced depressive behavior; format: in vivo, mice
Method: Randomly selected NIH Swiss adult male mice (7 weeks, ˜30 g) were divided into three groups of 5 mice in per group. LPS (Lipopolysaccharide) was administered as does 850 μg/kg in saline 100 μL intraperitoneally. After 1 h, chimeric compound (HM3a-R, FIG. 2A) or belinostat (Spectrum Pharmaceutical, Irvine, CA) was injected into mice as does 75 mg/kg in vehicle 100 μL intraperitoneally. Then the compounds were dissolved in 10% dimethyl sulfoxide and 90% vehicle mixture. Vehicle formulation is 45% (2-hydroxypropyl)-β-cyclodextrin solution. After 6 h and 24 h, tail suspension test was performed. Every tail-hanged mouse was video-recorded for 6 minutes. […] The tail suspension test (TST) was performed to assess antidepressant-like activity using lipopolysaccharide (LPS) which is an endotoxin that causes depressive behavior in mice. The antidepressant activities of HM3a-R and belinostat were compared with a control.

[3] = system: immobility in forced swim test; test: Forced swimming test (FST); format: in vivo, mice; details: for improvement in forced-swim test (antidepressant-like activity): C57BL female mice, 6 h after injection, versus control
Method: The FST experiment was performed twice, the first experiment comparing the control group and the HM3a-R group, and the second experiment comparing the control group and the belinostat group. In the first FST, randomly selected C57BL adult female mice (6 weeks, 20 g) were divided into two groups of eight mice per group. And the second FST, randomly selected C57BL adult female mice (6 weeks, 20 g) were divided into two groups of five mice per group. Chimeric compounds, HM3a-R (FIG. 2A) was dissolved in 10% dimethyl sulfoxide and 90% vehicle mixture. Vehicle formulation is 45% (2-hydroxypropyl)-β-cyclodextrin solution. Then, HM3a-R or belinostat as dose 75 mg/kg or vehicle (for control) was injected into mice with 100 μL volume intraperitoneally. After 6 h, two 3-liter beakers were filled approximately with 2 L water at 25+/-0.5 degrees Celsius. Camcorder was placed, directly across from two beakers. Each pair of mice (i.e., one control mouse and one treated mouse) was placed into each beaker. Every trial was video recorded in this manner for 10 minutes. While the beakers were adjacent to each other, they were enclosed by cardboard boxes. The immobile times (between 2 and 8 minutes of 10-minute trial) for each pair of mice were counted by the person who was blinded to the identities of the control and treated mice pairs.

[4] = system: carrageenan-induced paw edema; test: Carrageenan-induced paw edema model; details: in vivo
[5] = system: antidepressant-like activity in animal models; test: In vivo screening in animal models (antidepressant-like activity); details: compared with PDX-101 (belinostat)
xylene-induced ear edema = test: Xylene-induced mouse ear edema test; format: in vivo, mice; details: for anti-inflammation effect compared with the control group against xylene-induced ear edema: 10 mg/kg intraperitoneally, C57BL female mice, 2 h after xylene
Method: Randomly selected C57BL adult female mice (6 weeks, ˜20 g) were divided into three groups of five mice in per group. Chimeric compounds (HM3a-R, HM3a-S, FIG. 2A) were dissolved in 10% dimethyl sulfoxide and 90% vehicle mixture. Vehicle formulation is 45% (2-hydroxypropyl)-β-cyclodextrin solution. And then, the compounds or vehicle were injected into mice as does 10 mg/kg and injection volume 100 μL intraperitoneally. After 30 min, mice treated 30 μL of xylene on the anterior and posterior surfaces of the right ear lobe, the left ear was considered as control. Two hours later, mice were sacrificed by using CO2 gas and both ears were cut off by using a cork borer with a diameter of 7 mm and weighed and the percentage of ear edema was calculated based on the weight of another ear without xylene.

[6] = system: depressive symptoms among GBM patients; test: Clinical trial of vorinostat in recurrent glioblastoma, depression assessed by IDS-SR; format: in vivo, human
Method: A clinical trial was performed to evaluate vorinostat for the treatment of recurrent glioblastomas (GBM). Among the pleiotropic effects of HDAC inhibitors is the ability to attenuate inflammation, an action seen at concentrations lower than those required to slow cancer cell growth. GBM is frequently associated with neuroinflammation, which is thought to have pro-tumorigenic effects. […] Such changes are associated with recruitment of macrophages along a hypoxia-mediated chemotactic gradient. Macrophages recruited to hypoxic sites exert tumor-promoting effects through the expression of genes with mitogenic, angiogenic, and migration/invasion stimulating properties. Abrogating inflammatory changes associated with GBM might reduce or eliminate access to these tumor-promoting effects. Another intriguing effect of HDACis as anticancer agents might be their mood-enhancing, potentially anti-depressant, properties. In mice, decreased histone acetylation in key mood-relevant genes was found following chronic social defeat stress, a mouse model of depression. […]
During the clinical trial, levels of depression were assessed using the Inventory of Depressive Symptomatology-Self Report (IDS-SR) to determine whether vorinostat alters the severity of depressive symptoms among GBM patients. […]

[7] = 75 mg/kg intraperitoneally, LPS 850 μg/kg, NIH Swiss male mice

For `O=C(NO)c1cnc(NC2(c3ccccc3)CC2)nc1` [ACY-738], the “effects comparable to a higher dose of citalopram administered alone” value [1] is given as roughly 40 fold.
For `COC(=O)[C@]1(c2ccc(Cl)c(Cl)c2)C[C@H]1CNCc1ccc(C(=O)NO)cc1` [HM3a-R, (1R,2R)-methyl-1-(3,4-dichlorophenyl)-2-(((4-(hydroxycarbamoyl)benzyl)amino)methyl) cyclopropane-1-carboxylate], the “histone H4 acetylation” value (histone H4 deacetylation) was “increased histone H4 acetylation”, the cellular toxicity (Cellular toxicity) was “without cellular toxicity” and the “duration of immobility in TST at 6 h” value [2, 7] was “significantly reduced duration of immobility; also recorded: reduction in immobility”. For the same molecule, the “duration of immobility in TST at 24 h” value ([2]; 75 mg/kg intraperitoneally, LPS 850 μg/kg, NIH Swiss male mice, 24 h) was “as effective as belinostat; also recorded: reduction in immobility”, the “onset of antidepressant action in TST versus belinostat” value ([2]; P<0.01, n=5) was “faster onset of antidepressant action” and the “duration of immobility in FST” value ([3]; 75 mg/kg intraperitoneally, 6 h, P<0.05) was “significantly less duration of immobility”. For the same molecule, the “improvement in forced-swim test (antidepressant-like activity)” value ([3]; 75 mg/kg intraperitoneally) was 23%, the “antidepressant-like activity in FST relative to belinostat” value ([3]; 23% vs. 12%) was “almost two-fold” and the “effectiveness against carrageenan-induced paw edema, comparison of enantiomers” value [4] was “more effective”. The “antidepressant-like activity and onset time in animal models” value [5] was “excellent antidepressant-like activity and fast onset time”, the “anti-inflammation effect compared with the control group against xylene-induced ear edema” value (xylene-induced ear edema) was 48% and the “effectiveness against ear inflammation, comparison of enantiomers” value (xylene-induced ear edema; FIG. 3) was “more effective than HM3a-S”.
For `COC(=O)[C@@]1(c2ccc(Cl)c(Cl)c2)C[C@@H]1CNCc1ccc(C(=O)NO)cc1` [HM3a-S, (1S,2S)-methyl-1-(3,4-dichlorophenyl)-2-(((4-(hydroxycarbamoyl)benzyl)amino)methyl) cyclopropane-1-carboxylate], the “anti-inflammation effect compared with the control group against xylene-induced ear edema” value (xylene-induced ear edema) was 23%.
With `Nc1ccccc1NC(=O)c1ccc(CNC(=O)OCc2cccnc2)cc1` [MS-275, (pyridin-3-yl)methyl-4-(2-aminophenylcarbamoyl)benzylcarbamate] the “inhibition of histone H4 deacetylation, comparison” value (histone H4 deacetylation; 1 μM and 5 μM) was “higher inhibitions than HM3a-R” and the “histone H4 acetylation” value (histone H4 deacetylation) was “increased histone H4 acetylation”.
For `O=C(/C=C/c1cccc(S(=O)(=O)Nc2ccccc2)c1)NO` [belinostat, reference compound], the “duration of immobility in TST at 6 h” value [2, 7] was “didn't show any effect” and the “improvement in forced-swim test (antidepressant-like activity)” value ([3]; 75 mg/kg intraperitoneally) was 12%.
For `O=C(CCCCCCC(=O)Nc1ccccc1)NO` [vorinostat], the “GBM patients with improved IDS-SR scores” value ([6]; 7 days of vorinostat treatment) was 67% and the side effect ([6]; most patients on treatment for more than 3 weeks) was “fatigue”.
